For 10 molecules, EC50 results are on record in patent publication US5756527A, “Imidazole derivatives useful as modulators of multi drug resistances” (Ontogen Corporation, priority 1997, dated 1998).

Molecules are shown by their SMILES.

Data set [1] has as its system CEM/VLB1000. As to the kind of experiment: [3H]-vinblastine (VLB) accumulation assay. The settings on record: midpoint of minimum and maximum increase in accumulation of 3H-vinblastine (275 nM), 3 hours at 37° C. It counts as cell-based. The procedure:
^3 H-vinblastine accumulation was also measured in the CEM/VLB1000 cell line. Corning Easy-Wash 96 well plates were pretreated with PBS and 1% BSA for 60 minutes and then removed. CEM/VLB1000 cells were seeded at 2×10^5, 40 μL volume. Plates were incubated at 37° C. for 30-60 minutes prior to use. The reference reversing agent, verapamil, or the compound of the present invention was added to the well followed by addition of media containing ^3 H-vinblastine (final concentration=275nM). Plates were allowed to incubate for 3 hours at 37° C. Cells were harvested onto pretreated Wallace filtermats A (pretreated with 0.1% polyethyleneimine) using a TomTek harvester-96. After filtering, the filtermats were allowed to dry completely. Meltix B scintillant was then added to the filtermats. The filters were then placed in a 90° C. oven for approximately 3-5 minutes and then removed. Scintillant was allowed to solidify on the filtermats. Filtermats were then placed in sample bags and read on a Wallace BetaPlate scintillation counter. The effects of compounds of the present invention in the cytotoxicity potentiation assays and vinblastine (VLB) accumulation assay are given in the Table below:
^2 Values presented are the midpoint (EC50) of the minimum and
maximum increase in accumulation of ^3 Hvinblastine caused by the
specific compound of the present invention.

Data set [2] has as its system CEM/VLB1000. As to the kind of experiment: Cytotoxicity potentiation (alamar blue) of vinblastine in multidrug-resistant cells. The data set is classed as cell-based. The settings on record: midpoint of minimum and maximum cytotoxicity induced by 3-5 μg/mL vinblastine and compound, 48 h. On the procedure: Multidrug-resistant cell lines are easily obtainable for in vitro determination of drug sensitization by compounds of the present invention. In vitro potentiation of antineoplastic cytotoxicity by the imidazole derivatives of the present invention was measured in both CEM/VLB1000 and SK/VLB1000 cell lines. The multidrug resistant cell lines were obtained from Dr. Victor Ling, Ontario Cancer Institute, Toronto, Canada. The CEM/VLB 1000 cell line was maintained as a suspension in minimum essential medium supplemented with 10% fetal bovine serum in a humidied atmosphere of 95% air and 5% CO2 while the SK/VLB 1000 cell line was maintained as adherent cells using the identical medium conditions as the CEM cells. The CEM/VLB 1000 cells were seeded at a density of 5×10^4 cells/well in a 96 well microtiter plate while the SK/VLB 1000 cell line was seeded at a density of 2,500 cells/well after trypsinization. Vinblastine (5 μg/mL, for the CEM cells) or Taxol (3 μg/mL, for the SK cells) and compound (0.01 to 50 μM) were added directly to the wells. After an incubation of 48 hours in presence of drug, alamar blue (B. Page et al., Int. J. Oncol. 3: 473-476, 1993) was added (10 μL to the 200 μL cell suspension) for a period of 24 hours after which the fluorescence (excitation=530 nm, emission=590 nm) was read for each well using a "CytoFluor" microtiter fluorometer plate reader. This assay measures the effective concentration of compound necessary to enhance the cytotoxicity (EC50) of vinblastine in the MDR cell line.
^1 Values presented are the midpoint (EC50) of the minimum and
maximum cytotoxicity induced by 3-5 μg/mL vinblastine and the specific
compound of the present invention.
(Alamar Blue is a resazurin reagent that responds to reducing activity.)

As a reminder, the EC50 is the concentration that produces a half-maximal response.

Consider `COC(=O)/C=C/c1cc(-c2nc(-c3ccc(N(C)C)cc3)c(-c3ccc(N(C)C)cc3)[nH]2)ccc1F` [Example 58, 2-[4-fluoro-3-(trans-methylpropenoate)phenyl]-4,5-bis(4-N,N-dimethylaminophenyl) imidazole], for which the EC50 in data set [1] turned out to be 2000 nM; in data set [2], 134 nM.

For `CNc1ccc(-c2[nH]c(-c3ccc(F)c(/C=C/C(=O)OC)c3)nc2-c2ccc(N(C)C)cc2)cc1` [Example 59, 2-[4-fluoro-3-(trans-methylpropenoate)phenyl]-4-[(4-N,N-dimethylamino)phenyl]-5-[(4-N-methylamino)phenyl] imidazole], the EC50 is 3200 nM in data set [1] and 570 nM in data set [2].

As for `COC(=O)/C=C/c1ccc(-c2nc(-c3ccc(N(C)C)cc3)c(-c3ccc(N(C)C)cc3)[nH]2)c(F)c1` [Example 60, 2-[2-fluoro-4-(trans-methylpropenoate)phenyl]-4,5-bis(4-N,N-dimethylaminophenyl) imidazole], the EC50 in data set [1] amounted to 3000 nM; in data set [2], 613 nM.

Turning to `COC(=O)/C=C/c1ccc(-c2nc(-c3ccc(N(C)C)cc3)c(-c3ccc(N(C)C)cc3)[nH]2)s1` [Example 61], the concentration giving a half-maximal response (EC50) in data set [1] came to 1800 nM; in data set [2], 217 nM.

As to `COC(=O)/C=C/c1csc(-c2nc(-c3ccc(N(C)C)cc3)c(-c3ccc(N(C)C)cc3)[nH]2)c1` [Example 62, 2-[3-(trans-methylpropenoate)thienyl]-4,5-bis[(4-N,N-dimethylamino)phenyl] imidazole], the EC50 in data set [1] stood at 3000 nM; in data set [2], 320 nM.

Turning to `COCCCc1ccc(-c2nc(-c3ccc(N(C)C)cc3)c(-c3ccc(N(C)C)cc3)[nH]2)cc1` [Example 63, 2-[4-(3-methoxypropyl)phenyl]-4,5-bis[(4-N,N-dimethylamino)phenyl] imidazole], the figures for the concentration for a half-maximal effect (EC50) in data set [1] and in data set [2] were 1100 nM and 205 nM, respectively.

Turning to `COc1ccc(/C=C/C(=O)OC(C)C)cc1-c1nc(-c2ccc(N(C)C)cc2)c(-c2ccc(N(C)C)cc2)[nH]1` [Example 64, 2-[2-methoxy-5-(trans-i-propylpropenoate)phenyl]-4,5-bis(4-N,N-dimethylaminophenyl) imidazole], the EC50 worked out at 6000 nM in data set [1] and 390 nM in data set [2].

Consider `CC(C)OC(=O)/C=C/c1ccc(-c2nc(-c3ccc(N(C)C)cc3)c(-c3ccc(N(C)C)cc3)[nH]2)s1` [Example 65, 2-[3-(trans-i-propylpropenoate)thienyl]-4,5-bis[(4-N,N-dimethylamino)phenyl] imidazole], for which the half-maximal effective concentration (EC50) in data set [1] amounted to 4000 nM; in data set [2] it was 211 nM.

For `CN(C)c1ccc(-c2nc(-c3ccc(/C=C/C(=O)OCc4ccccc4)cc3)[nH]c2-c2ccc(N(C)C)cc2)cc1` [Example 67, 2-[4-(trans-benzylpropenoate)phenyl]-4,5-bis[(4-N,N-dimethylamino)phenyl] imidazole], the 50% effective concentration (EC50) in data set [1] amounted to 10500 nM; in data set [2], 330 nM.

As for `CN(C)c1ccc(-c2nc(-c3ccc(/C=C/C(=O)OCCc4ccccc4)cc3)[nH]c2-c2ccc(N(C)C)cc2)cc1` [Example 68, 2-[4-(trans-phenethylpropenoate)phenyl]-4,5-bis[(4-N,N-dimethylamino)phenyl] imidazole], the EC50 in data set [1] was more than 30000 nM; in data set [2], 1200 nM.
